Experiments:
[1] = target: T1, Muscarinic acetylcholine receptor M2 (Rattus norvegicus, UniProt P10980); experiment: Inhibition of rat muscarinic acetylcholine M2 receptor expressed in CHO cells co-expressing Gqi5 preincubated with compound followed by acetylcholine addition at EC80 concentration by calcium mobilization assay; type: functional, cell-based
T1 sequence (P10980 whole entry): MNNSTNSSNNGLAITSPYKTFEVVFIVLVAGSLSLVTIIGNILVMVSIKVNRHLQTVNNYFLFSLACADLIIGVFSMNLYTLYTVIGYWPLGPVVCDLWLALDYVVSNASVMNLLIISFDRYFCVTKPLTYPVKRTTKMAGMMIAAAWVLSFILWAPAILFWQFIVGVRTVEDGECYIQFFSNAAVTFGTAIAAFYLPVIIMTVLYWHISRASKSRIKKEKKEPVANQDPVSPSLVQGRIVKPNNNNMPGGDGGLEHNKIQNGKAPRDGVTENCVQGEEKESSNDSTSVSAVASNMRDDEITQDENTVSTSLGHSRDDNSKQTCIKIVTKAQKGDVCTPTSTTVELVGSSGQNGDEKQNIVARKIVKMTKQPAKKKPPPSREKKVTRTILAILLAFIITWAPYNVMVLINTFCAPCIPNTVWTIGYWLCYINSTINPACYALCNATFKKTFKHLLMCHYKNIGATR

Cytochrome P450 1A2 = target: T2, Cytochrome P450 1A2 (Homo sapiens, UniProt P05177); experiment: Inhibition of CYP1A2 in human liver microsomes using cocktail of isoform-specific probe substrate; type: ADME, Microsome
T2 sequence (P05177 whole entry): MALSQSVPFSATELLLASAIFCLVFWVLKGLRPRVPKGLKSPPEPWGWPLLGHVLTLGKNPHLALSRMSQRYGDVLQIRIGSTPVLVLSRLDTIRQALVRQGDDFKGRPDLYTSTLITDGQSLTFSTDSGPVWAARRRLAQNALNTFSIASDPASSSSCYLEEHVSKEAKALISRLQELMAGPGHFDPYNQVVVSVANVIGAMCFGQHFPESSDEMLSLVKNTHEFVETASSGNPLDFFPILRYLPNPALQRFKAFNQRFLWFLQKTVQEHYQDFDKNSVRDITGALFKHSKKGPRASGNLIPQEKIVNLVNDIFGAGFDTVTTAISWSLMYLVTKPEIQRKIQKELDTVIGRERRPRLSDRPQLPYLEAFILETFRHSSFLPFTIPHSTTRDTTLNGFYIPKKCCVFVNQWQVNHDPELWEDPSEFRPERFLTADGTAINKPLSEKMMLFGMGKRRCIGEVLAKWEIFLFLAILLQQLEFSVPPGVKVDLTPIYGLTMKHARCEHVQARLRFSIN

[2] = target: T3, Muscarinic acetylcholine receptor M1 (Homo sapiens, UniProt P11229); experiment: Inhibition of human muscarinic acetylcholine M1 receptor expressed in CHO cells co-expressing Gqi5 preincubated with compound followed by acetylcholine addition at EC80 concentration by calcium mobilization assay; type: functional, cell-based
T3 sequence (P11229 whole entry): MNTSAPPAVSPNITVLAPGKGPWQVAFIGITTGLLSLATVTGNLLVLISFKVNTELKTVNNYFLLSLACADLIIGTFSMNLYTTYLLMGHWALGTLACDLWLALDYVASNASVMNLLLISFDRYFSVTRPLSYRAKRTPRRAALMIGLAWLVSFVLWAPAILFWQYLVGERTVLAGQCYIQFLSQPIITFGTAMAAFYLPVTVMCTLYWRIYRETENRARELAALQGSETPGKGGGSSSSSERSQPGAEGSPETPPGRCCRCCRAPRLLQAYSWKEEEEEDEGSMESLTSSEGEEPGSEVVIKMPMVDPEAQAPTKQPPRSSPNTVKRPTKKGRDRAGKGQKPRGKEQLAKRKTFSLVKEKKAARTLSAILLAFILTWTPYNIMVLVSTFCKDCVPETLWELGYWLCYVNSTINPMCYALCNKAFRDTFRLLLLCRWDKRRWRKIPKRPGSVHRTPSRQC

[3] = Intrinsic clearance in rat liver microsomes; type: ADME, Microsome; settings: read-out: CLH
[4] = AUC (0.25 to last) in rat brain at 3 mg/kg, ip; type: ADME, organism-based; settings: in vivo
[5] = Intrinsic clearance in human liver microsomes; type: ADME, Microsome; settings: read-out: CLH
[6] = Tmax in rat plasma at 3 mg/kg, ip; type: ADME, organism-based
Cytochrome P450 2D6 = Cytochrome P450 2D6 (Homo sapiens, UniProt P10635); experiment: Inhibition of CYP2D6 in human liver microsomes using cocktail of isoform-specific probe substrate; type: ADME, Microsome
[7] = Selectivity ratio of IC50 for inhibition of human muscarinic acetylcholine M2 receptor to IC50 for inhibition of human muscarinic acetylcholine M4 receptor expressed in CHO cells co-expressing Gqi5 in the presence of acetylcholine at EC80 concentration by calcium mobilization assay; type: cell-based
[8] = Unbound Cmax in rat plasma at 3 mg/kg, ip; type: ADME, organism-based; settings: in vivo
[9] = Tmax in rat brain at 3 mg/kg, ip; type: ADME, organism-based
[10] = Cmax in rat brain at 3 mg/kg, ip; type: ADME, organism-based; parameters: dose 3 mg/kg, route ip
[11] = Tmax in mouse brain at 3 mg/kg, ip; type: ADME, organism-based
[12] = target: Muscarinic acetylcholine receptor M3 (Rattus norvegicus, UniProt P08483); experiment: Inhibition of rat muscarinic acetylcholine M3 receptor expressed in CHO cells co-expressing Gqi5 preincubated with compound followed by acetylcholine addition at EC80 concentration by calcium mobilization assay; type: functional, cell-based
[13] = Ratio of AUC (0.25 to last) in mouse brain to plasma at 3 mg/kg, ip; type: ADME, organism-based; settings: read-out: Ratio AUC
[14] = Elimination half life in rat at 3 mg/kg, iv; type: ADME, organism-based; settings: in vivo, read-out: beta t1/2 (converted)
[15] = MRT in rat at 3 mg/kg, iv; type: ADME, organism-based; settings: in vivo
Cytochrome P450 3A4 = Cytochrome P450 3A4 (Homo sapiens, UniProt P08684); experiment: Inhibition of CYP3A4 in human liver microsomes using cocktail of isoform-specific probe substrate; type: ADME, Microsome
Cytochrome P450 2C9 = Cytochrome P450 2C9 (Homo sapiens, UniProt P11712); experiment: Inhibition of CYP2C9 in human liver microsomes using cocktail of isoform-specific probe substrate; type: ADME, Microsome
[16] = Cmax in mouse brain at 3 mg/kg, ip; type: ADME, organism-based; parameters: dose 3 mg/kg, route ip

Muscarinic acetylcholine receptor M3, sequence (P08483 whole entry): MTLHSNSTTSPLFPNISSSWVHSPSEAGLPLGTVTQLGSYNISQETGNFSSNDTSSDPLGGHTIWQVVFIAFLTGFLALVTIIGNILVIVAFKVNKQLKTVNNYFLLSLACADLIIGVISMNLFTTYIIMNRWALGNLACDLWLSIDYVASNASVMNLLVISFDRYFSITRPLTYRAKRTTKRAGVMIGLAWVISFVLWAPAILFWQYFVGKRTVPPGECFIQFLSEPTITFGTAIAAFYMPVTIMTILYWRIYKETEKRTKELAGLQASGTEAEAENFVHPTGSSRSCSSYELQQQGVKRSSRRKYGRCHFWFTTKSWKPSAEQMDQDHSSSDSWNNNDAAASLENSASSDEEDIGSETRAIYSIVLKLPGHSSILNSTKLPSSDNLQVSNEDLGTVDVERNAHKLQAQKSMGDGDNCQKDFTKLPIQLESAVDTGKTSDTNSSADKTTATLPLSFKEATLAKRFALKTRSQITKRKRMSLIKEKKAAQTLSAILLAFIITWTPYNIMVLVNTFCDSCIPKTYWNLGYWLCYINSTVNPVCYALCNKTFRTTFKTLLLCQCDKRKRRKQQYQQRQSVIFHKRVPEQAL
Cytochrome P450 2D6, sequence (P10635 whole entry, canonical isoform): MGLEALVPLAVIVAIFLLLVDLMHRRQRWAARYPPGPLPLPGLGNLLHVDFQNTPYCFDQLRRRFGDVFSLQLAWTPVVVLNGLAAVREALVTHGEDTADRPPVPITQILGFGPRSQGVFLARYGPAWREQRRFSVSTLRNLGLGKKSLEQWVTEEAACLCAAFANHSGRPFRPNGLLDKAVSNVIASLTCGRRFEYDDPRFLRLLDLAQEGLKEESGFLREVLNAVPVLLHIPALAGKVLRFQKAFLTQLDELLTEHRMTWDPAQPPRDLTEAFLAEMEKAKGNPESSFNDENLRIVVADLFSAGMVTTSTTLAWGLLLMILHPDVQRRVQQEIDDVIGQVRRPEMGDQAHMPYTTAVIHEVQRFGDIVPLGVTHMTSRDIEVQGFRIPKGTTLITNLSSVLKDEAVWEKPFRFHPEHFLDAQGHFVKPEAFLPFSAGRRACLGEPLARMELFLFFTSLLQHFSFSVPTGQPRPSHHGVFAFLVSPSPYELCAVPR
Cytochrome P450 2C9, sequence (P11712 whole entry, canonical isoform): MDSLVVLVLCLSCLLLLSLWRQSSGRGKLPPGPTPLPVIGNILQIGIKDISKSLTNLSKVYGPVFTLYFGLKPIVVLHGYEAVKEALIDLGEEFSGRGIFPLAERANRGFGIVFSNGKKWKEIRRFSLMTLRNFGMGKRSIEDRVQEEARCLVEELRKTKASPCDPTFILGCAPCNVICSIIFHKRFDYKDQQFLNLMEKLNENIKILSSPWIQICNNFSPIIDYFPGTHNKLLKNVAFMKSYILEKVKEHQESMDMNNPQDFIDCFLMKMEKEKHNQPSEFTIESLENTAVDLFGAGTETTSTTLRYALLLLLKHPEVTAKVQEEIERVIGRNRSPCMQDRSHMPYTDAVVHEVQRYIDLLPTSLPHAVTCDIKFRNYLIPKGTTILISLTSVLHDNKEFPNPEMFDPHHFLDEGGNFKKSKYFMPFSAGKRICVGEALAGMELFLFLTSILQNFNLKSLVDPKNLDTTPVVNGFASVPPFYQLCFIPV
Cytochrome P450 3A4, sequence (P08684 whole entry, canonical isoform): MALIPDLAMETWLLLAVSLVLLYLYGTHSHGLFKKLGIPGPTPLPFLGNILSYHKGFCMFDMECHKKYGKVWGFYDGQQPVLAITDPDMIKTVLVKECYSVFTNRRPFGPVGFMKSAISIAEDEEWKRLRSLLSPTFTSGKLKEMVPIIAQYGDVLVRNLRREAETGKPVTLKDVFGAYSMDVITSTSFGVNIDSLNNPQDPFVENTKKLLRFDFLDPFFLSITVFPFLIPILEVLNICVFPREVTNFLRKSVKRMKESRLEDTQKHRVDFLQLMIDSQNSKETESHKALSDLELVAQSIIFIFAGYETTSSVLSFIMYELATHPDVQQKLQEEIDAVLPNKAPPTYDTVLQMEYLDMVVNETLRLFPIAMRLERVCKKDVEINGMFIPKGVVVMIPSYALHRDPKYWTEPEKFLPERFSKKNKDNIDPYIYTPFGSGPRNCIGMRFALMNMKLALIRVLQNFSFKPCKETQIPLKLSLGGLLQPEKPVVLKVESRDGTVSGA

SMILES: CC(=O)Nc1ccc(-c2ccc(NC[C@@H]3CC34CCN(CC3CCOCC3)CC4)nn2)cc1
- IC50 [1]: > 10 µM
- IC50 (Cytochrome P450 1A2): > 30 µM
- IC50 [2]: > 10 µM
- CLint scaled [3]: 6.2 mL/min/kg
- AUClast [4]: 2180 ng·h/g
- predicted hepatic clearance [5]: 16 mL/min/kg
- Tmax [6]: 0.25 h
- IC50 (Cytochrome P450 2D6): > 30 µM
- Ratio IC50 [7]: > 140
- fCmax [8]: 1656 ng/mL
- Tmax [9]: 2 h
- Cmax [10]: 477 ng/g
- Tmax [11]: 2 h
- IC50 [12]: > 10 µM
- Kp [13]: 0.38
- half-life [14]: 8.6 h
- MRT [15]: 9.33 h
- IC50 (Cytochrome P450 3A4): > 30 µM
- IC50 (Cytochrome P450 2C9): > 30 µM
- Cmax [16]: 738 ng/g

Source: ChEMBL document CHEMBL5131409, “Synthesis and characterization of chiral 6-azaspiro[2.5]octanes as potent and selective antagonists of the M4 muscarinic acetylcholine receptor” (Bioorg Med Chem Lett, 2022)
